The text below walks through data of ChEMBL document CHEMBL5634150, “Design, synthesis and biological evaluation of novel dihydroquinolin-4(1H)-one derivatives as novel tubulin polymerization inhibitors” (Eur J Med Chem, 2023).

As usually defined, the inhibition is the percentage by which the read-out fell short of the control. For orientation: IC50 means the midpoint of a concentration-inhibition curve. What is called solubility is how much of the substance goes into solution per volume. A high value points to much dissolved substance. By half-life is commonly meant the time in which the quantity being followed falls by half.

The nature of data set [1]: Metabolic stability in mouse plasma assessed as compound remaining at 1 uM and measured at 3 hrs by LC-MS/MS analysis. In kind it is ADME, cell-free. The following applies: read-out: Stability.
For data set [2], the system named is A549. The experiment in a line: Antiproliferative activity against human A549 cells assessed as inhibition of cell growth at 1 uM measured after 72 hrs by MTT assay relative to control. In kind it is functional. (In general: Tetrazolium dyes change colour on reduction, which living cells bring about.)
Data set [3] concerns A549. Nature of the data set: Antiproliferative activity against human A549 cells assessed as inhibition of cell growth at 0.1 uM measured after 72 hrs by MTT assay relative to control. It is filed as functional.
Data set [4] concerns A549. Nature of the data set: Antiproliferative activity against human A549 cells assessed as inhibition of cell growth at 0.01 uM measured after 72 hrs by MTT assay relative to control. It is filed as functional.
The test system of data set [5] is A549. Nature of the data set: Antiproliferative activity against human A549 cells assessed as inhibition of cell growth measured after 72 hrs by MTT assay. It is filed as functional, cell-based. The following applies: A549, 72 h.
The subject of data set [6] is K562. The experiment in a line: Antiproliferative activity against human K562 cells assessed as inhibition of cell growth measured after 72 hrs by MTT assay. In kind it is functional, cell-based. The conditions noted are these: K562, 72 h.
Data set [7] has as its system HepG2. The experiment in a line: Antiproliferative activity against human HepG2 cells assessed as inhibition of cell growth measured after 72 hrs by MTT assay. In kind it is functional, cell-based. The following applies: HepG2, 72 h.
In data set [8] the test system is MDA-MB-231. The experiment in a line: Antiproliferative activity against human MDA-MB-231 cells assessed as inhibition of cell growth measured after 72 hrs by MTT assay. In kind it is functional, cell-based. The conditions noted are these: MDA-MB-231, 72 h.
Data set [9] in a line: Antiproliferative activity against human HFL1 cells assessed as inhibition of cell growth measured after 72 hrs by MTT assay. It is filed as toxicity, cell-based.
Data set [10] has as its system A549/TR. The experiment in a line: Antiproliferative activity against human A549/Taxol cells assessed as inhibition of cell growth measured after 72 hrs by MTT assay. In kind it is functional, cell-based.
Data set [11] in a line: Aqueous solubility of the compound by HPLC analysis. In kind it is physicochemical. The following applies: aqueous (not further specified).
Data set [12] can be described thus: Metabolic stability in mouse plasma assessed as half life at 1 uM and measured upto 3 hrs by LC-MS/MS analysis. It is filed as ADME, cell-free.
The nature of data set [13]: Metabolic stability in mouse liver microsomes assessed as half life at 100 uM measure upto 60 mins in presence of NADPH by LC-MS/MS analysis. It is filed as ADME, Microsome. For orientation: Liver microsomes are vesicles of endoplasmic reticulum, rich in cytochrome P450 enzymes.
Data set [14] in a line: Metabolic stability in mouse liver microsomes assessed as intrinsic clearance at 100 uM measure upto 60 mins in presence of NADPH by LC-MS/MS analysis. It is filed as ADME, Microsome. The conditions noted are these: 1 h.
For data set [15], the system named is H22. The experiment in a line: Antitumor activity against mouse H22 cells allografted in mouse model assessed as tumor growth inhibition at 20 mg/kg,iv administered once daily for 3 weeks relative to control. In kind it is functional. The following applies: H22, 504 h, read-out: TGI.

Converted amounts (≈) assume the structure as drawn.

Take `COc1ccc(/C=C\c2cc(OC)c(OC)c(OC)c2)cc1O` [COMBRETASTATIN A4]: in [1], the remaining at 3 h, 1 µM was 97.8%. Also, in data set [2], the inhibition at 1 µM was determined as 78.4%. Further, in data set [3], the inhibition at 0.1 µM stood at 76.2%. In addition, in [4], the inhibition at 0.01 µM was determined as 76.9%. The IC50 in [5] is 0.011 µM; in data set [6], 0.004 µM; in data set [7], 0.033 µM; in data set [8] it was 0.02 µM; in data set [10], 0.076 µM. The IC50 at 72 h in data set [9] amounted to 0.091 µM. Also, the solubility in [11] stood at 0.96 µg/mL (≈ 3.03 µM). Further, the half-life at 1 µM in data set [12] was > 3 h. The half-life at 100 µM in [13] is < 5 min. Also, in [14], the CLH is > 277 µL/min/mg. Moreover, the inhibition in vivo at 20 mg/kg in data set [15] was 59.2%.
